Publication PMC1919488 (Nucleic Acids Research, 2007)
Residue numbers refer to the chain shown, from its start. Where two headings read alike, the source gives them in different places.

What was measured:
Rad51 [1] = molecular target: T1, Rad51 (Saccharomyces cerevisiae, UniProt P25454); experiment: biochemical
T1 sequence (P25454 1-400): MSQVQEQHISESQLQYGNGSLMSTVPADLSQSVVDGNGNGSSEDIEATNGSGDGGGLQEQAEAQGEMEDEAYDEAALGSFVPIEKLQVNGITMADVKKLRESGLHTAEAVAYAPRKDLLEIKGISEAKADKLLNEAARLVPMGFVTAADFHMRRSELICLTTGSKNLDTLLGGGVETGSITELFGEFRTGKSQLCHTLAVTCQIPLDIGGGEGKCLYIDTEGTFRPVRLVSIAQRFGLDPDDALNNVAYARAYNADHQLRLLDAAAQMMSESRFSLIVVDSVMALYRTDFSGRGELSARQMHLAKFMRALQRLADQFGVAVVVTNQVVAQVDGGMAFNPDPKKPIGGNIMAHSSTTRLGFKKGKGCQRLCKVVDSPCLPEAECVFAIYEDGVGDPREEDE

Rad51 [2] = molecular target: T2, Rad51 (Saccharomyces cerevisiae, UniProt P25454, K191R); experiment: biochemical
T2 sequence (P25454 1-400 K191R): T1 sequence (P25454 1-400) with K191R

Rad51 [3] = molecular target: T3, Rad51 (Saccharomyces cerevisiae, UniProt P25454, K191A); experiment: biochemical
T3 sequence (P25454 1-400 K191A): T1 sequence (P25454 1-400) with K191A

Rad51 [4] = molecular target: T3, Rad51; assay type: binding
Rad51 [5] = molecular target: T1, Rad51; assay type: binding
Rad51 [6] = molecular target: T2, Rad51; assay type: binding

Row | SMILES | Kd (Rad51 [1]) [µM] | Kd (Rad51 [2]) [µM] | Kd (Rad51 [3]) [µM] | Kd (Rad51 [4]) [µM] | Kd (Rad51 [5]) [µM] | Kd (Rad51 [6]) [µM]
1 | Nc1ncnc2c1ncn2[C@@H]1O[C@H](COP(=O)(O)OP(=O)(O)OP(=O)(O)O)[C@@H](O)[C@H]1O [ATP] | 8.8 ± 4.5 | 52.5 ± 18.2 | 34.2 ± 25.8 |  |  | 
2 | [N-]=[N+]=Nc1nc2c(N)ncnc2n1[C@@H]1O[C@H](COP(=O)(O)OP(=O)(O)OP(=O)(O)O)[C@@H](O)[C@H]1O [8-Azido-ATP] |  |  |  | 73.7 ± 35.6 | 10.2 ± 5.1 | 26.9 ± 10.3
